In US9193995B2, “Compositions for detecting human interferon-alpha subtypes and methods of use” (UNITED STATES DEPARTMENT OF HEALTH AND HUMAN SERVICES, priority 2008, dated 2015):

How the values were obtained:
Assay in all cases: IFN subtype expression in response to TLR ligands (RT-PCR)
Type in all cases: cell-based, Human
plasmacytoid DC (pDC) = conditions: 10 uM Imiquimod, 6.5 ug/ml CpG A, 1, 4 or 24 hours, much higher levels than mDC
Description: (§1) To test whether expression of IFN subtypes varied among different cell types, the primers of the invention were used to determine expression patterns of IFN-alpha, IFN-lambda, IFN-beta and IFN-gamma in response to ligands of TLR 3 (poly I:C), 4 (LPS), 7 (imiquimod) and 9 (CpG). LPS (E. coli O111:B4), imiquimod, and poly I:C were purchased from EMD Chemicals (Gibbstown, N.J.). CpG types D35, K, and C, and control D35 GpC oligonucleotides were synthesized by the Food and Drug Administration Center for Biologics Evaluation and Research Facility for Biotechnology Resources. For both the D35 CpG and control GpC, the two bases at the 5′ and 3′ ends had nuclease-resistant phosphorothioate linkages.
(§2) Human peripheral blood monocytes, myeloid DC (mDC), plasmacytoid DC (pDC), and B cells were isolated. Elutriated monocytes and lymphocytes were obtained from the NIH Clinical Center Department of Transfusion Medicine (Bethesda, Md.) and the preparation was subjected to Ficoll-Hypaque (Sigma-Aldrich, St. Louis, Mo.) density centrifugation. Monocytes, mDC and pDC were purified with magnetic beads specific for CD14, CD1c, and CD303, respectively using an AutoMACS magnetic cell sorter (Miltenyi Biotec, Auburn, Calif.). […]

myeloid DC (mDC) = conditions: 10 uM Imiquimod, 6.5 ug/ml CpG A, 1, 4 or 24 hours, varied with donor, FIG. 9E
Description: as §1, §2

monocytes, MDM and MDDC = conditions: 25 ug/ml Poly I:C, 10 ng/ml LPS, 1, 4 or 24 hours, FIG. 9A-C
Description: as §1, §2

| Compound | IFN expression in response to TLR ligand (plasmacytoid DC (pDC)) | IFN expression in response to TLR ligand (myeloid DC (mDC)) | IFN expression in response to TLR ligand (monocytes, MDM and MDDC) |
| --- | --- | --- | --- |
| CC(C)Cn1cnc2c(N)nc3ccccc3c21 [imiquimod] | expressed most IFN | expressed most IFN-a subtypes |  |
| poly I:C |  |  | expressed high levels of IFN-b, IFN-g, IFN-11, and to a lesser extent, IFN-l2 and IFN-a1 |
